Measurements as given in PubChem BioAssay (NCI).
Values joined by “and” are separate entries in the source; they are usually repeats but may differ in a detail not shown here. Equal values may be shown once.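 Step 1: Grow cells in 96-well plates. Step 2: Expose to compound for 48 hours at 5 concentrations. Step 3: Interpolate endpoints linearly; if unreached, use highest concentration. Abbreviation: GI50, concentration required for 50% inhibition of growth. TGI is the concentration that stops growth completely.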

Legend:
Test in all cases: growth of human tumour cells (NCI), 48 h
DLD-1 colon = test system: DLD-1 colon
M19-MEL melanoma = test system: M19-MEL melanoma
LXFL 529 NSCLC = test system: LXFL 529 NSCLC
DMS 273 small cell lung = test system: DMS 273 small cell lung
DMS 114 small cell lung = test system: DMS 114 small cell lung
MCF7 breast = test system: MCF7 breast
MDA-MB-435 = test system: MDA-MB-435
NCI/ADR-RES ovarian = test system: NCI/ADR-RES ovarian
T-47D breast = test system: T-47D breast
HS 578T breast = test system: HS 578T breast

Compound	TGI (DLD-1 colon)	TGI (M19-MEL melanoma)	TGI (LXFL 529 NSCLC)	TGI (DMS 273 small cell lung)	TGI (DMS 114 small cell lung)	other results
CC(=O)[CH-]C(=O)c1ccccc1.CC(=O)[CH-]C(=O)c1ccccc1.[O-]c1ccc(O)cc1.[O-]c1ccc(O)cc1.[Ti+4]	37.6 µM	29.7 µM	25.7 µM	–	–	GI50 (DLD-1 colon): 16.6 µM; GI50 (M19-MEL melanoma): 14.8 µM; GI50 (LXFL 529 NSCLC): 13 µM
c1ccc2c(c1)[Se]c1ccccc1[Se]2	> 100 µM	> 100 µM	> 100 µM	> 100 µM	> 100 µM	–
COc1cc(C(C)c2cc3c(cc2OCCOCCOc2cc4c(cc2C(C)c2cc(OC)c(OC)c(OC)c2)OCO4)OCO3)cc(OC)c1OC (centres undefined)	> 100 µM	> 100 µM	> 100 µM	> 10 µM	> 100 µM	GI50 (DLD-1 colon): > 100 µM; GI50 (M19-MEL melanoma): > 100 µM; GI50 (DMS 114 small cell lung): > 100 µM; GI50 (LXFL 529 NSCLC): > 100 µM
CCC(=O)[O-].CCC(=O)[O-].N.N.N.N.[Co+3].[O-][Cl+3]([O-])([O-])[O-]	> 100 µM	–	> 100 µM	> 100 µM	–	GI50 (DLD-1 colon): > 100 µM; GI50 (DMS 273 small cell lung): > 100 µM; GI50 (LXFL 529 NSCLC): > 100 µM
NC(N)=NS(=O)(=O)c1ccc(NC(=O)c2ccc(Cl)c3c(Nc4ccc(S(=O)(=O)N=C(N)N)cc4)c4ccccc4nc23)cc1	> 100 µM	> 100 µM	> 100 µM	> 100 µM	> 100 µM	–
CC(=O)N1C(=O)C(=O)c2cc(Cl)ccc21	> 100 µM	> 100 µM	> 100 µM	> 100 µM	> 100 µM	–
COC(=O)c1c(C(=O)OC)c(C(=O)OC)c(C(=O)OC)c1C(=O)OC	> 100 µM	–	> 100 µM	> 100 µM	> 100 µM	–
COc1cccc(C(=O)O)c1Cc1cccc2ccccc12	> 100 µM	> 100 µM	> 100 µM	> 100 µM	–	–
CP(=O)(CCSc1ccccc1)c1ccccc1 (centres undefined)	> 100 µM	> 100 µM	> 100 µM	> 100 µM	> 100 µM	–
NCC(=O)OCN1C(=O)C2C3C=CC(C2C1=O)C1C2C(=O)N(COC(=O)CN)C(=O)C2C31 (centres undefined)	54.2 µM and 60.8 µM	45.1 µM and 37.9 µM	42.1 µM and > 100 µM	33.6 µM and 37.3 µM	39 µM and 36.8 µM	–
C=CC1(C)/C(=N\O)C(C)(CC)C(=O)N1O (centres undefined)	> 100 µM	> 100 µM	> 100 µM	> 100 µM	> 100 µM	–
O=c1c2cc(-c3ccccc3)sc2nc2sc(-c3ccccc3)nn12	> 100 µM	> 100 µM	> 100 µM	> 100 µM	> 100 µM	–
N#CC(C(=N/NC(N)=S)/C(=N\NC(N)=S)C(C#N)c1ccccc1)c1ccccc1 (centres undefined)	> 10 µM	> 10 µM	> 10 µM	> 10 µM	> 10 µM	–
CC[O+]=c1cccc2ssnc1-2	> 100 µM	> 100 µM	> 100 µM	> 100 µM	–	–
CC1=C(CC/C(C)=C/CCC2(C)CCC([C@H](C)C(=O)O)OO2)C(C)(C)CCC1 (some centres undefined) (tested in a mixture with another compound)	> 100 µM	> 100 µM	> 100 µM	> 100 µM	> 100 µM	–
COc1ccc2c(CCNS(=O)(=O)c3ccccc3)c(C(C)=O)[nH]c2c1[N+](=O)[O-]	–	–	> 100 µM	> 100 µM	–	–
COC(=O)/C=C\C1C(C(=O)OC)C2(C(=O)OC)CCC1(C(=O)OC)N2 (centres undefined)	12.4 µM	27.9 µM	19.3 µM	33.9 µM	–	–
C=CCCC12CCCC(=O)C1Sc1ccc3ccccc3c12 (centres undefined)	71.5 µM	> 100 µM	33.2 µM	23.6 µM	–	–

Compound	TGI (DLD-1 colon)	TGI (M19-MEL melanoma)	TGI (LXFL 529 NSCLC)	TGI (DMS 273 small cell lung)	TGI (DMS 114 small cell lung)	other results
CCN(CC)CCNc1ccc(CO)c2sc3ccccc3c(=O)c12	–	26.5 µM and 31.6 µM	31.6 µM	–	27.5 µM and 23 µM	GI50 (MCF7 breast): 2.21 µM and 4.35 µM and 5.57 µM; TGI (MCF7 breast): 7.55 µM and 17.3 µM and 19.2 µM; GI50 (MDA-MB-435): 2.49 µM; TGI (MDA-MB-435): 7.56 µM and 11.3 µM; GI50 (NCI/ADR-RES ovarian): 2.99 µM and 4.29 µM and 7.25 µM; TGI (NCI/ADR-RES ovarian): 17 µM and 17.3 µM and 21 µM; GI50 (T-47D breast): 4.84 µM; TGI (T-47D breast): 17.8 µM and 28.6 µM; GI50 (HS 578T breast): 4.26 µM and 9.64 µM; TGI (HS 578T breast): 24.8 µM and 26.8 µM
Cc1cc(Cl)ccc1N1C(=O)C(=O)C(c2nc3ccccc3s2)/C(=N\NC(=O)c2ccccc2O)C1=O (centres undefined)	> 100 µM	> 100 µM	> 100 µM	> 100 µM	> 100 µM	–
CCCCCCCCCCSS(=O)(=O)c1ccc(C)cc1	29.8 µM	26.6 µM	27.6 µM	23 µM	30.4 µM	–
COc1ccc2c3c([nH]c2c1[N+](=O)[O-])C(C)N(C(=O)/C=C/c1ccccc1)CC3 (centres undefined)	–	–	> 100 µM	7.77 µM	–	–
O=C(CN1C(=O)c2ccccc2C1=O)OC1C=CCCC1 (centres undefined)	> 100 µM	> 100 µM	> 100 µM	> 100 µM	–	–
COC(=O)/C1=C/C2CC(/C=C(/c3ccccc3)C(=O)O1)C2	> 100 µM	> 100 µM	–	53 µM	55.8 µM	–
NC(CCc1nc(-c2ccccc2)cs1)C(=O)O (centres undefined)	> 100 µM	> 100 µM	> 100 µM	> 100 µM	> 100 µM	–
CC(C)c1cccc2sc(NC(=O)C(=O)CC(=O)c3ccc(F)cc3)nc12	> 100 µM	> 100 µM	> 100 µM	> 100 µM	> 100 µM	–
CCC1(c2ccncc2)CCC(=O)NC1=O (centres undefined)	> 100 µM	> 100 µM	> 100 µM	–	> 100 µM	–
CN1NC(c2ccccc2)=C(C#N)C(=O)CC1c1ccccc1Cl (centres undefined)	> 100 µM	–	> 100 µM	> 100 µM	> 100 µM	–
CC(=O)[CH-]C(=O)c1ccccc1.CC(=O)[CH-]C(=O)c1ccccc1.CC(C)CCCC(C)[C@H]1CCC2[C@@H]3CCC4C[C@@H]([O-])CC[C@]4(C)C3CC[C@@]21C.CC(C)CCCC(C)[C@H]1CCC2[C@@H]3CCC4C[C@@H]([O-])CC[C@]4(C)C3CC[C@@]21C.Cl.[Ti+4] (some centres undefined)	> 25 µM	> 25 µM	> 25 µM	> 25 µM	–	GI50 (DLD-1 colon): > 25 µM; GI50 (M19-MEL melanoma): > 25 µM; GI50 (DMS 273 small cell lung): > 25 µM; GI50 (LXFL 529 NSCLC): > 25 µM
CCC1N2CCCCC2[C@@H]2c3[nH]c4ccccc4c3CCN12 (some centres undefined)	> 100 µM	> 100 µM	> 100 µM	> 100 µM	> 100 µM	–
O=C(O/N=C1/CCC/C1=C\c1ccccc1)c1ccc(Cl)cc1	> 31.6 µM	> 100 µM	> 100 µM	> 100 µM	–	–
C/C(=C\c1ccccc1)C(O)S(=O)(=O)O (centres undefined)	> 100 µM	> 100 µM	> 100 µM	> 100 µM	> 100 µM	–
C#Cc1cccc(N2C(=O)CC(=P(c3ccccc3)(c3ccccc3)c3ccccc3)C2=O)c1	> 100 µM	> 100 µM	> 100 µM	–	72.6 µM	–
O=S(O)CCCCSSCCCCS(=O)(O)=S	> 100 µM	> 100 µM	61.2 µM	> 100 µM	> 100 µM	–
COc1ccc(-n2nc(C)c3c(Nc4ccc(NC(=O)Nc5cc(C(F)(F)F)ccc5F)cc4)ncnc32)cc1	–	–	–	–	–	GI50 (MCF7 breast): 2.69 µM; TGI (MCF7 breast): 14.7 µM; GI50 (MDA-MB-435): 2.44 µM; TGI (MDA-MB-435): 6.51 µM; GI50 (NCI/ADR-RES ovarian): 2.93 µM; TGI (NCI/ADR-RES ovarian): 11.9 µM; GI50 (T-47D breast): 2.57 µM; TGI (T-47D breast): 8.72 µM; GI50 (HS 578T breast): 2.33 µM; TGI (HS 578T breast): 7.11 µM
Cc1ccc(S(=O)(=O)NC(C)C(=O)O)cc1 (centres undefined)	> 100 µM	> 100 µM	> 100 µM	> 100 µM	–	–
